Experimental data published in the NIST ThermoML archive (doi:10.1016/j.jct.2009.05.009).
Numbers after ± are expanded uncertainties.

Assay: xn = mol fraction of the nth substance listed
Conditions: 101.3 kPa, Liquid, Vibrating tube method

In the case of `O` [water] + CCOS(=O)(=O)[O-].CCn1cc[n+](C)c1, the mass density (318.15 K, x1 = 1) is reported as 990.1 ± 2 kg/m3, the mass density (323.15 K, x1 = 1) is reported as 988 ± 2 kg/m3 and the mass density (328.15 K, x1 = 1) is reported as 985.7 ± 2 kg/m3. The mass density (333.15 K, x1 = 1) was 983.2 ± 2 kg/m3, the mass density (338.15 K, x1 = 1) was 980.5 ± 2 kg/m3 and the mass density (343.15 K, x1 = 1) was 977.8 ± 2 kg/m3.
Work on `CCCC[n+]1ccn(C)c1.O=S(=O)([N-]S(=O)(=O)C(F)(F)F)C(F)(F)F` + O yielded a mass density (298.2 K, x2 = 0) of 1437.1 ± 2.6 kg/m3, a mass density (298.2 K, x2 = 0.0308) of 1435.7 ± 2.6 kg/m3 and a mass density (298.2 K, x2 = 0.0753) of 1434 ± 2.5 kg/m3. It also gave a mass density (298.2 K, x2 = 0.1194) of 1432.2 ± 2.5 kg/m3, a mass density (298.2 K, x2 = 0.1731) of 1430 ± 2.4 kg/m3 and a mass density (298.2 K, x2 = 0.2391) of 1426.7 ± 2.3 kg/m3. It also gave a mass density (323.21 K, x2 = 0) of 1413.8 ± 2.6 kg/m3, a mass density (323.21 K, x2 = 0.0482) of 1411.8 ± 2.5 kg/m3 and a mass density (323.21 K, x2 = 0.0816) of 1410.5 ± 2.5 kg/m3. It also gave a mass density (323.21 K, x2 = 0.119) of 1408.8 ± 2.4 kg/m3, a mass density (323.21 K, x2 = 0.1597) of 1407.1 ± 2.4 kg/m3 and a mass density (323.21 K, x2 = 0.2141) of 1404.5 ± 2.3 kg/m3. The mass density (323.21 K, x2 = 0.2583) was 1402 ± 2.3 kg/m3.
Molecule `CCCCn1cc[n+](C)c1.F[P-](F)(F)(F)(F)F` [1-butyl-3-methylimidazolium hexafluorophosphate] + O has a mass density (298.15 K, x2 = 0) of 1368.3 ± 2 kg/m3, a mass density (298.15 K, x2 = 0.0431) of 1366.5 ± 2.1 kg/m3 and a mass density (298.15 K, x2 = 0.0982) of 1363.5 ± 2.1 kg/m3. For the same molecule, the mass density (298.15 K, x2 = 0.1222) was 1362.1 ± 2.1 kg/m3, the mass density (298.15 K, x2 = 0.1566) was 1360.1 ± 2.1 kg/m3 and the mass density (298.15 K, x2 = 0.1873) was 1358.5 ± 2.1 kg/m3. For the same molecule, the mass density (298.15 K, x2 = 0.2548) was 1355.5 ± 2 kg/m3, the mass density (298.15 K, x2 = 0.2971) was 1354.1 ± 2 kg/m3 and the mass density (323.15 K, x2 = 0) was 1347.7 ± 2 kg/m3. It also gave a mass density (323.15 K, x2 = 0.0431) of 1345.6 ± 2.1 kg/m3, a mass density (323.15 K, x2 = 0.0982) of 1342.2 ± 2.1 kg/m3 and a mass density (323.15 K, x2 = 0.1222) of 1340.6 ± 2.1 kg/m3. For the same molecule, the mass density (323.15 K, x2 = 0.1566) was 1338.5 ± 2.1 kg/m3, the mass density (323.15 K, x2 = 0.1873) was 1336.4 ± 2.1 kg/m3 and the mass density (323.15 K, x2 = 0.2548) was 1332.3 ± 2.1 kg/m3. It also gave a mass density (323.15 K, x2 = 0.2971) of 1329.9 ± 2.1 kg/m3.
